Measured values published in patent US20240279220A1, “INDOLE COMPOUNDS AND METHODS OF USE” (Genzyme Corporation, priority 2021, published 2024).

Tested on: NBD1/3D
Experiment: Aggregation analysis using differential static light scattering (DSLS), NBD1 thermal stability
Format: binding, Human
Details: ΔTagg versus DMSO control; compound at 100 μM
Outline: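 Purified NBD1 at 0.2 mg/ml in S200 buffer (pH 7.6, 2 mM ATP, 5 mM MgCl2, 1% glycerol) was heated with compound at 1 °C/min to 70 °C. Tagg taken from the light-scattering curve inflection point; ΔTagg = compound Tagg minus mean DMSO control Tagg.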

| Compound | DSLS NBD1/3D Human Stability delta-T (° C.) @ 100 (μM) |
| --- | --- |
| CS(=O)(=O)c1c(Oc2ccc(F)c(-c3ncc(Cc4cccc(CCC(=O)O)c4)[nH]3)c2)c(F)cc2[nH]ccc12 [Example 22, 3-(3-((2-(2-Fluoro-5-((6-fluoro-4-(methylsulfonyl)-1H-indol-5-yl)oxy)phenyl)-1H-imidazol-5-yl)methyl)phenyl)propanoic acid] | A (A: T ≥ 10° C.) |
| CS(=O)(=O)c1c(Oc2ccc(F)c(-c3ncc(Cc4cccc(CCC(N)=O)c4)[nH]3)c2)c(F)cc2[nH]ccc12 [Example 24, 3-(3-((2-(2-Fluoro-5-((6-fluoro-4-(methylsulfonyl)-1H-indol-5-yl)oxy)phenyl)-1H-imidazol-5-yl)methyl)phenyl)propanamide] | B (B: 5-10° C.) |
| O=C(O)CCc1cccc(Cc2nnc(-c3cccc(Oc4c(F)cc5[nH]ccc5c4[S+]([O-])C(F)F)c3)[nH]2)c1 (stereo not shown) [Example 25, 3-(3-((5-(3-((4-((Difluoromethyl)sulfinyl)-6-fluoro-1H-indol-5-yl)oxy)phenyl)-4H-1,2,4-triazol-3-yl)methyl)phenyl)propanoic acid] | C (C: ≤5° C.) |
| CC(O)(c1cccc(CCC(=O)O)c1)c1cnc(-c2cc(Oc3c(F)cc4[nH]ccc4c3S(C)(=O)=O)ccc2F)[nH]1 (stereo not shown) [Example 26, 3-(3-(1-(2-(2-Fluoro-5-((6-fluoro-4-(methylsulfonyl)-1H-indol-5-yl)oxy)phenyl)-1H-imidazol-5-yl)-1-hydroxyethyl)phenyl)propanoic acid] | A (A: T ≥ 10° C.) |
| CCS(=O)(=O)c1c(Oc2ccc(F)c(-c3ncc(C(C)(O)c4cccc(CCC(=O)O)c4)[nH]3)c2)c(F)cc2[nH]ccc12 (stereo not shown) [Example 27, 3-(3-(1-(2-(5-((4-(ethylsulfonyl)-6-fluoro-1H-indol-5-yl)oxy)-2-fluorophenyl)-1H-imidazol-5-yl)-1-hydroxyethyl)phenyl)propanoic acid] | B (B: 5-10° C.) |
| CC(O)(c1cccc(CCC(=O)O)c1)c1cnc(-c2cccc(Oc3c(F)cc4[nH]ccc4c3S(=O)(=O)CC(F)F)c2)[nH]1 (stereo not shown) [Example 28, 3-(3-(1-(2-(3-((4-((2,2-difluoroethyl)sulfonyl)-6-fluoro-1H-indol-5-yl)oxy)phenyl)-1H-imidazol-5-yl)-1-hydroxyethyl)phenyl)propanoic acid] | A (A: T ≥ 10° C.) |
| CC(C)S(=O)(=O)c1c(Oc2ccc(F)c(-c3nc(C(C)(O)c4cccc(CCC(=O)O)c4)c[nH]3)c2)c(F)cc2[nH]ccc12 (stereo not shown) [Example 29, 3-(3-(1-(2-(2-fluoro-5-((6-fluoro-4-(isopropylsulfonyl)-1H-indol-5-yl)oxy)phenyl)-1H-imidazol-4-yl)-1-hydroxyethyl)phenyl)propanoic acid] | B (B: 5-10° C.) |
| CC(O)(c1cccc(CCC(N)=O)c1)c1cnc(-c2cc(Oc3c(F)cc4[nH]ccc4c3S(C)(=O)=O)ccc2F)[nH]1 (stereo not shown) [Example 30, 3-(3-(1-(2-(2-Fluoro-5-((6-fluoro-4-(methylsulfonyl)-1H-indol-5-yl)oxy)phenyl)-1H-imidazol-5-yl)-1-hydroxyethyl)phenyl)propanamide] | B (B: 5-10° C.) |
| Cn1nc(-c2cccc(Oc3c(F)cc4[nH]ccc4c3S(C)(=O)=O)c2)nc1Cc1cccc(CCC(=O)O)c1 [Example 31, 3-(3-((3-(3-((6-Fluoro-4-(methylsulfonyl)-1H-indol-5-yl)oxy)phenyl)-1-methyl-1H-1,2,4-triazol-5-yl)methyl)phenyl)propanoic acid] | B (B: 5-10° C.) |
| CS(=O)(=O)c1c(Oc2cccc(-c3ncn(Cc4cccc(CCC(=O)O)c4)n3)c2)c(F)cc2[nH]ccc12 [Example 32, 3-(3-((3-(3-((6-Fluoro-4-(methylsulfonyl)-1H-indol-5-yl)oxy)phenyl)-1H-1,2,4-triazol-1-yl)methyl)phenyl)propanoic acid] | B (B: 5-10° C.) |
| C[S+]([O-])c1c(Oc2cccc(-c3ncn(Cc4cccc(CCC(=O)O)c4)n3)c2)c(F)cc2[nH]ccc12 (stereo not shown) [Example 33, 3-(3-((3-(3-((6-Fluoro-4-(methylsulfinyl)-1H-indol-5-yl)oxy)phenyl)-1H-1,2,4-triazol-1-yl)methyl)phenyl)propanoic acid] | B (B: 5-10° C.) |
| CS(=O)(=O)c1c(Oc2cccc(-c3ncn(Cc4cccc(CCC(N)=O)c4)n3)c2)c(F)cc2[nH]ccc12 [Example 34, 3-(3-((3-(3-((6-Fluoro-4-(methylsulfonyl)-1H-indol-5-yl)oxy)phenyl)-1H-1,2,4-triazol-1-yl)methyl)phenyl)propanamide] | B (B: 5-10° C.) |
| CS(=O)(=O)c1c(Oc2cccc(-c3nc(Cc4cccc(CCC(=O)O)c4)cs3)c2)c(F)cc2[nH]ccc12 [Example 35, 3-(3-((2-(3-((6-Fluoro-4-(methylsulfonyl)-1H-indol-5-yl)oxy)phenyl)thiazol-4-yl)methyl)phenyl)propanoic acid] | B (B: 5-10° C.) |
| C[S+]([O-])c1c(Oc2cccc(-c3nc(Cc4cccc(CCC(=O)O)c4)cs3)c2)c(F)cc2[nH]ccc12 (stereo not shown) [Example 36, 3-(3-((2-(3-((6-Fluoro-4-(methylsulfinyl)-1H-indol-5-yl)oxy)phenyl)thiazol-4-yl)methyl)phenyl)propanoic acid] | B (B: 5-10° C.) |
| CC(O)(c1cccc(CCC(=O)O)c1)c1csc(-c2cccc(Oc3c(F)cc4[nH]ccc4c3S(C)(=O)=O)c2)n1 (stereo not shown) [Example 37, 3-(3-(1-(2-(3-((6-Fluoro-4-(methylsulfonyl)-1H-indol-5-yl)oxy)phenyl)thiazol-4-yl)-1-hydroxyethyl)phenyl)propanoic acid] | B (B: 5-10° C.) |
| CC(c1cccc(CCC(=O)O)c1)n1ccc(-c2cc(Oc3c(F)cc4[nH]ccc4c3S(C)(=O)=O)ccc2F)n1 (stereo not shown) [Example 38, 3-(3-(1-(3-(2-Fluoro-5-((6-fluoro-4-(methylsulfonyl)-1H-indol-5-yl)oxy)phenyl)-1H-pyrazol-1-yl)ethyl)phenyl)propanoic acid] | B (B: 5-10° C.) |
| CS(=O)(=O)c1c(Oc2cccc(-c3nc(Cc4cccc(CCC(=O)O)c4)co3)c2)c(F)cc2[nH]ccc12 [Example 42, 3-(3-((2-(3-((6-Fluoro-4-(methylsulfonyl)-1H-indol-5-yl)oxy)phenyl)oxazol-4-yl)methyl)phenyl)propanoic acid] | B (B: 5-10° C.) |
| CS(=O)(=O)c1c(Oc2ccc(F)c(-c3ncc(C4(c5cccc(CCC(=O)O)c5)OCCCO4)[nH]3)c2)c(F)cc2[nH]ccc12 [Example 44, 3-(3-(2-(2-(2-Fluoro-5-((6-fluoro-4-(methylsulfonyl)-1H-indol-5-yl)oxy)phenyl)-1H-imidazol-5-yl)-1,3-dioxan-2-yl)phenyl)propanoic acid] | A (A: T ≥ 10° C.) |
| CS(=O)(=O)c1c(Oc2ccc(F)c(-c3ncc(C4(c5cccc(CCC(=O)O)c5)CCC4)[nH]3)c2)c(F)cc2[nH]ccc12 [Example 46, 3-(3-(1-(2-(2-fluoro-5-((6-fluoro-4-(methylsulfonyl)-1H-indol-5-yl)oxy)phenyl)-1H-imidazol-5-yl)cyclobutyl)phenyl)propanoic acid] | A (A: T ≥ 10° C.) |
